Assay results as given in ChEMBL document CHEMBL4819028, “Structures and Biosynthetic Pathway of Coprisamides C and D, 2-Alkenylcinnamic Acid-Containing Peptides from the Gut Bacterium of the Carrion Beetle Silpha perforata” (J Nat Prod, 2021).
Converted amounts (≈) assume the structure as drawn. The source made the active and inactive calls. The calls are words filed in the database; no cut-off is given here.

Key:
[1] = test system: Mycobacterium tuberculosis; assay: Antitubercular activity against Mycobacterium tuberculosis mc2 6230 assessed as inhibition of bacterial growth incubated for 5 days by REMA; format: functional; conditions: mc2 6230, 120 h, time 5 day
[2] = biological target: NAD(P)H dehydrogenase [quinone] 1 (Mus musculus) (UniProt Q64669); assay: Induction of quinone reductase activity in mouse Hepa1c1c7 cells at 10 uM incubated for 24 hrs by MTT based assay; format: cell-based; conditions: filed as activator
Chain of NAD(P)H dehydrogenase [quinone] 1 (Mus musculus) (Q64669 whole entry): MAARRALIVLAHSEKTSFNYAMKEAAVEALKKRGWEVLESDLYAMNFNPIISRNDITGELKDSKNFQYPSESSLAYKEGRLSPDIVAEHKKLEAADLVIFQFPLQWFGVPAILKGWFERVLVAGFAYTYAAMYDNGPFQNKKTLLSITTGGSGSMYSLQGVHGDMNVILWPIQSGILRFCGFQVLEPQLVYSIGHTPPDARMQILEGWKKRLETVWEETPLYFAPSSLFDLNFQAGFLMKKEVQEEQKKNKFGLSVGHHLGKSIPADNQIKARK

[3] = Cytotoxicity against mouse Hepa1c1c7 cells at higher concentration; format: cell-based
Staphylococcus aureus = assay: Antibacterial activity against Staphylococcus aureus; format: functional, organism-based
Enterococcus faecalis = assay: Antibacterial activity against Enterococcus faecalis; format: functional, organism-based
Enterococcus faecium = assay: Antibacterial activity against Enterococcus faecium; format: functional, organism-based
Klebsiella pneumoniae = assay: Antibacterial activity against Klebsiella pneumoniae; format: functional, organism-based
Salmonella enterica = assay: Antibacterial activity against Salmonella enterica; format: functional, organism-based
Escherichia coli = assay: Antibacterial activity against Escherichia coli; format: functional, organism-based
Aspergillus fumigatus = assay: […] activity against Aspergillus fumigatus; format: functional, organism-based
Trichophyton rubrum = assay: […] activity against Trichophyton rubrum; format: functional, organism-based
[4] = test system: Trichophyton mentagrophytes; assay: […] activity against Trichophyton mentagrophytes; format: functional, organism-based
Candida albicans = assay: […] activity against Candida albicans; format: functional, organism-based

SMILES	MIC50 [1] [µg/mL]	fold change (FC) [2]	Activity [3]	Activity (Staphylococcus aureus)	Activity (Enterococcus faecalis)	Activity (Enterococcus faecium)	Activity (Klebsiella pneumoniae)	Activity (Salmonella enterica)	Activity (Escherichia coli)	Activity (Aspergillus fumigatus)	Activity (Trichophyton rubrum)	Activity [4]	Activity (Candida albicans)
CC[C@@H](CO)NCCN[C@@H](CC)CO [ETHAMBUTOL]	0.83 (≈ 4.06 µM)												
CC(C)/C=C/C/C=C\c1ccccc1/C=C/C(=O)N[C@H](C)C(=O)N[C@@H]1COC(=O)[C@H]([C@H](C)C(=O)O)NC(=O)[C@H](CNC(=O)[C@@H](N)C(C)C)NC(=O)[C@H](C(C)C)NC(=O)[C@@H](CC(C)C)NC1=O	82.8 (≈ 89.7 µM)	2.4	Toxic	inactive	inactive	inactive	inactive	inactive	inactive	inactive	inactive	inactive	inactive
C/C=C/C=C/C/C=C\c1ccccc1/C=C/C(=O)NC(C)C(=O)N[C@@H]1COC(=O)[C@H]([C@H](C)C(=O)O)NC(=O)[C@H](CNC(=O)C(N)C(C)C)NC(=O)[C@H](C(C)C)NC(=O)[C@@H](CC(C)C)NC1=O (some centres undefined)		2.6											
CC(C)C/C=C/C=C/c1ccccc1/C=C/C(=O)N[C@H](C)C(=O)N[C@@H]1COC(=O)[C@H]([C@H](C)C(=O)O)NC(=O)[C@H](CNC(=O)[C@@H](N)C(C)C)NC(=O)[C@H](C(C)C)NC(=O)[C@@H](CC(C)C)NC1=O		2.3	Toxic	inactive	inactive	inactive	inactive	inactive	inactive	inactive	inactive	inactive	inactive
C/C=C/C=C/C=C/c1ccccc1/C=C/C(=O)NC(C)C(=O)N[C@@H]1COC(=O)[C@H]([C@H](C)C(=O)O)NC(=O)[C@H](CNC(=O)C(N)C(C)C)NC(=O)[C@H](C(C)C)NC(=O)[C@@H](CC(C)C)NC1=O (some centres undefined)		2.1											
NNC(=O)c1ccncc1 [ISONIAZID]	0.03 (≈ 0.219 µM)												
